Reference: the supplement of paper PMC10307832

Experiments:
Experiment in all cases: relative viability (nuclei count vs DMSO), 5 days (fraction); higher = more cells survive
LC-2-ad = test system: LC-2-ad
Summary of the method: (§1)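 A single step with final 0.05% Triton X-100, 1% formaldehyde and 1 ug/ml Hoechst fixed the cells and stained nuclei 5 days after treatment. Lung cancer cell lines in 1536-well plates had been treated by pin tool the day after seeding with one drug alone or a fixed anchor-drug dose plus five library-drug doses (not always all listed) in √10 steps, and nuclei were counted on 4× images. Relative viability is the ratio of nuclei in treated wells to nuclei in vehicle wells, taken as the median of duplicate plates.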

EKVX = test system: EKVX
Summary of the method: as §1

NCI-H1395 = test system: NCI-H1395
Summary of the method: as §1

NCI-H2347 = test system: NCI-H2347
Summary of the method: as §1

NCI-H2228 = test system: NCI-H2228
Summary of the method: as §1

NCI-H1651 = test system: NCI-H1651
Summary of the method: as §1

LXF-289 = test system: LXF-289
Summary of the method: as §1

CAL-12T = test system: CAL-12T
Summary of the method: as §1

H3255 = test system: H3255
Summary of the method: as §1

NCI-H2087 = test system: NCI-H2087
Summary of the method: as §1

SK-LU-1 = test system: SK-LU-1
Summary of the method: as §1

NCI-H1793 = test system: NCI-H1793
Summary of the method: as §1

NCI-H1915 = test system: NCI-H1915
Summary of the method: as §1

NCI-H1755 = test system: NCI-H1755
Summary of the method: as §1

COR-L 105 = test system: COR-L 105
Summary of the method: as §1

NCI-H1944 = test system: NCI-H1944
Summary of the method: as §1

NCI-H2085 = test system: NCI-H2085
Summary of the method: as §1

NCI-H1437 = test system: NCI-H1437
Summary of the method: as §1

LK-2 = test system: LK-2
Summary of the method: as §1

NCI-H661 = test system: NCI-H661
Summary of the method: as §1

SK-MES-1 = test system: SK-MES-1
Summary of the method: as §1

PC-3 [JPC-3] = test system: PC-3 [JPC-3]
Summary of the method: as §1

EMC-BAC-2 = test system: EMC-BAC-2
Summary of the method: as §1

Cc1cnc(-c2cnc(NCCNc3ccc(C#N)cn3)nc2-c2ccc(Cl)cc2Cl)[nH]1 + Nc1nc2[nH]cc(CCc3ccc(C(=O)N[C@@H](CCC(=O)O)C(=O)O)cc3)c2c(=O)[nH]1 [Pemetrexed] (partner 0.2 µM)
relative viability (LC-2-ad; first compound 0.08 µM): 0.276 | relative viability (LC-2-ad; first compound 0.8 µM): 0.252 | relative viability (LC-2-ad; first compound 2.53 µM): 0.247 | relative viability (EKVX; first compound 0.08 µM): 0.455 | relative viability (EKVX; first compound 0.253 µM): 0.358 | relative viability (EKVX; first compound 0.8 µM): 0.339 | relative viability (NCI-H1395; first compound 0.08 µM): 0.958 | relative viability (NCI-H1395; first compound 0.253 µM): 0.823 | relative viability (NCI-H1395; first compound 0.8 µM): 0.826 | relative viability (NCI-H1395; first compound 2.53 µM): 0.756 | relative viability (NCI-H2347; first compound 0.08 µM): 0.44 | relative viability (NCI-H2347; first compound 0.253 µM): 0.42 | relative viability (NCI-H2347; first compound 0.8 µM): 0.398 | relative viability (NCI-H2347; first compound 2.53 µM): 0.431 | relative viability (NCI-H2228; first compound 0.08 µM): 0.36 | relative viability (NCI-H2228; first compound 0.8 µM): 0.386 | relative viability (NCI-H2228; first compound 2.53 µM): 0.288 | relative viability (NCI-H1651; first compound 0.08 µM): 0.574 | relative viability (NCI-H1651; first compound 0.253 µM): 0.493 | relative viability (NCI-H1651; first compound 0.8 µM): 0.528 | relative viability (NCI-H1651; first compound 2.53 µM): 0.537 | relative viability (LXF-289; first compound 0.08 µM): 0.91 | relative viability (LXF-289; first compound 0.253 µM): 0.818 | relative viability (LXF-289; first compound 0.8 µM): 0.829 | relative viability (LXF-289; first compound 2.53 µM): 0.962 | relative viability (CAL-12T; first compound 0.08 µM): 1.19 | relative viability (CAL-12T; first compound 0.253 µM): 1.04 | relative viability (CAL-12T; first compound 0.8 µM): 1.17 | relative viability (CAL-12T; first compound 2.53 µM): 0.919 | relative viability (H3255; first compound 0.08 µM): 0.555 | relative viability (H3255; first compound 0.253 µM): 0.587 | relative viability (H3255; first compound 0.8 µM): 0.533 | relative viability (H3255; first compound 2.53 µM): 0.508 | relative viability (NCI-H2087; first compound 0.08 µM): 0.714 | relative viability (NCI-H2087; first compound 0.8 µM): 0.641 | relative viability (NCI-H2087; first compound 2.53 µM): 0.511 | relative viability (SK-LU-1; first compound 0.08 µM): 0.966 | relative viability (SK-LU-1; first compound 0.253 µM): 0.97 | relative viability (SK-LU-1; first compound 0.8 µM): 0.975 | relative viability (SK-LU-1; first compound 2.53 µM): 0.823 | relative viability (NCI-H1793; first compound 0.08 µM): 1.04 | relative viability (NCI-H1793; first compound 0.253 µM): 0.839 | relative viability (NCI-H1793; first compound 0.8 µM): 0.794 | relative viability (NCI-H1793; first compound 2.53 µM): 1.14 | relative viability (NCI-H1915; first compound 0.08 µM): 0.49 | relative viability (NCI-H1915; first compound 0.8 µM): 0.438 | relative viability (NCI-H1915; first compound 2.53 µM): 0.398 | relative viability (NCI-H1755; first compound 0.08 µM): 0.403 | relative viability (NCI-H1755; first compound 0.253 µM): 0.437 | relative viability (NCI-H1755; first compound 0.8 µM): 0.421 | relative viability (NCI-H1755; first compound 2.53 µM): 0.565 | relative viability (COR-L 105; first compound 0.08 µM): 1.25 | relative viability (COR-L 105; first compound 0.253 µM): 1.06 | relative viability (COR-L 105; first compound 0.8 µM): 0.903 | relative viability (COR-L 105; first compound 2.53 µM): 0.832 | relative viability (NCI-H1944; first compound 0.08 µM): 0.604 | relative viability (NCI-H1944; first compound 0.8 µM): 0.633 | relative viability (NCI-H1944; first compound 2.53 µM): 0.678 | relative viability (NCI-H2085; first compound 0.08 µM): 1.01 | relative viability (NCI-H2085; first compound 0.253 µM): 0.852 | relative viability (NCI-H2085; first compound 0.8 µM): 0.885 | relative viability (NCI-H2085; first compound 2.53 µM): 0.955 | relative viability (NCI-H1437; first compound 0.08 µM): 0.3 | relative viability (NCI-H1437; first compound 0.253 µM): 0.328 | relative viability (NCI-H1437; first compound 0.8 µM): 0.268 | relative viability (NCI-H1437; first compound 2.53 µM): 0.269 | relative viability (LK-2; first compound 0.08 µM): 0.242 | relative viability (LK-2; first compound 0.253 µM): 0.252 | relative viability (LK-2; first compound 2.53 µM): 0.253 | relative viability (NCI-H661; first compound 0.08 µM): 0.876 | relative viability (NCI-H661; first compound 0.253 µM): 0.887 | relative viability (NCI-H661; first compound 0.8 µM): 0.738 | relative viability (NCI-H661; first compound 2.53 µM): 0.649 | relative viability (SK-MES-1; first compound 0.08 µM): 0.932 | relative viability (SK-MES-1; first compound 0.253 µM): 0.895 | relative viability (SK-MES-1; first compound 0.8 µM): 0.977 | relative viability (SK-MES-1; first compound 2.53 µM): 0.99 | relative viability (PC-3 [JPC-3]; first compound 0.08 µM): 1.08 | relative viability (PC-3 [JPC-3]; first compound 0.253 µM): 1.02 | relative viability (PC-3 [JPC-3]; first compound 0.8 µM): 1.12 | relative viability (PC-3 [JPC-3]; first compound 2.53 µM): 0.969 | relative viability (EMC-BAC-2; first compound 0.08 µM): 0.419 | relative viability (EMC-BAC-2; first compound 0.253 µM): 0.43 | relative viability (EMC-BAC-2; first compound 0.8 µM): 0.393 | relative viability (EMC-BAC-2; first compound 2.53 µM): 0.368
